Measured values: patent US5958719A, “Method for the determination of the activity of specific phosphotyrosine phosphatases and specific effectors thereof in intact cells” (Max-Planck Gesellschaft Zur Foderung der Wissenschaften E.V., priority 1995, dated 1999)
Entries after “also recorded” stand apart in the source; their conditions may differ.

Columns and labels:
[1] = tested on: PDGF receptor-directed PTPase(s); type: cell-based, mouse
[2] = tested on: PDGF receptor-directed PTPase(s); assay: PDGF receptor-directed PTPase activity (dephosphorylation of autophosphorylated PDGF receptor) in isolated Swiss 3T3 cell membranes; type: biochemical, mouse; conditions: AG1296 50 μM, 30 min incubation, 10 mM EDTA
Excerpt: (§1) Swiss 3T3 fibroblasts (mouse) express PDGFα and PDGFβ receptors on the cell surface (Hosang et al. (1989)). Stimulation of the cells with PDGF leads to a rapid autophosphorylation of these receptors at tyrosine residues. This autophosphorylation can be detected in immunoblots using anti-phosphotyrosine antibodies after immunoprecipitation of the receptors and can be detected in unfractionated cell lysates. The autophosphorylated receptors are rapidly dephosphorylated by PDGF receptor-directed PTPase(s) (Bohmer et al. (1993)). The identity of the cellular PTPases which catalyse this reaction is not known. […] If the inhibitor is added to cells after activation of the PDGF receptor PTK, the dephosphorylation of the PDGF receptor can be monitored over time. (FIG. 3).
Isolated Swiss 3T3 cell membranes (10 μg protein per lane) were treated for 20 minutes on ice with PDGF (2 μg/ml). The activated PDGF receptor PTK was then autophosphorylated by adding 3 mM (final concentration) ATP. The kinase reaction was inhibited by addition of 10 mM EDTA. At the same time AG1296 (50 μM) (B) or the corresponding solvent (DMSO) (A) was added. The phosphotyrosine content of the PDGF receptor was measured in a similar manner to that described in FIG. 1 immediately after addition of the agents (0 min) or after 30 min incubation. […]

PDGF receptor = PDGF receptor dephosphorylation over time in intact PDGF-stimulated Swiss 3T3 cells after addition of PTK inhibitor; type: cell-based, mouse; conditions: AG1296 50 μM added after 5 min PDGF stimulation; intact Swiss 3T3 cells
Excerpt: as §1
Swiss 3T3 cells were treated in serum-free medium with PDGF (FIG. 3, lanes 2-6) or the corresponding solvent (FIG. 3, lane 1). After 5 minutes stimulation AG1296 (50 μM, FIG. 3B) or the corresponding solvent (DMSO, FIG. 3 A) was added. The phosphotyrosine content of the PDGF receptor was examined in the cells thus treated at the stated various time points. […] This decrease is caused by the activity of the PDGF receptor-directed PTPase in the intact cells.

PDGF receptor PTK = assay: Inhibition of PDGF receptor PTK (PDGF-induced receptor autophosphorylation, anti-phosphotyrosine immunoblot) in Swiss 3T3 cells; type: cell-based, mouse; conditions: AG1296 50 μM, 2 min preincubation, then PDGF-BB 100 ng/ml 5 min
Excerpt: as §1
Confluent, resting Swiss 3T3 cells were incubated as stated for various periods in serum-free cell culture medium without supplements (lanes 1, 2) or with the PDGF receptor PTK inhibitor AG1296 (final concentration 50 μM) (lanes 3-6). Then human recombinant PDGF-BB (final concentration 100 ng/ml) (lanes 2-6) or the corresponding solvent (lane 1) was added and the incubation was continued for 5 minutes.

NGF receptor = NGF receptor dephosphorylation over time in intact NGF-stimulated TrkA-transfected PC12 cells after addition of PTK inhibitor; type: cell-based, rat; conditions: K252a 1 μM added after 10 min NGF stimulation; intact PC12 cells transfected with TrkA
Excerpt: (§2) PC 12 cells (rat pheochromocytoma cells) which overexpress NGF receptors (Trk A) (Obermeier et al. (1994)) were used for the experiments shown. Stimulation of the cells with NGF leads to a rapid autophosphorylation of these receptors at tyrosine residues. This autophosphorylation can be detected in immunoblots using anti-phosphotyrosine antibodies after immunoprecipitation of the receptors. The identity of the cellular PTPases which dephosphorylate autophosphorylated NGF receptors is not known.
PC12 cells transfected with TrkA were treated in serum-free medium with NGF (lanes 2-6) or the corresponding solvent (lane 1). After a 10 minute stimulation, K252a (1 μM, B) or the corresponding solvent (DMSO, A) was added. At the stated various time points the cells treated correspondingly were tested as described in FIG. 1 and the phosphotyrosine content of the NGF receptors was examined. […] This decrease is caused by the activity of the NGF receptor-directed PTPase in the intact cells.

NGF receptor PTK (Trk) = assay: Inhibition of NGF receptor PTK (NGF-induced TrkA autophosphorylation, immunoprecipitation and anti-phosphotyrosine immunoblot) in PC12 cells; type: cell-based, rat; conditions: K252a 1 μM, 2 min (short) preincubation, then NGF 150 ng/ml 10 min; PC12 cells overexpressing TrkA
Excerpt: as §2
PC12 cells that overexpress TrkA were incubated as stated for various periods in serum-free cell culture medium without supplements (lanes 1, 2) or with the NGF receptor PTK inhibitor K252a (final concentration 1 μM) (lanes 3-6). Then NGF (final concentration 150 ng/ml) (lanes 2-6) or the corresponding solvent (lane 1) was added and the incubation was continued for 10 minutes.

NGF receptor PTK = conditions: Ohmichi et al (1992); Tapley et al (1992); cited from earlier work

## CNc1ccc2oc(CC3OC4(CCC3C)OC(C(C)C(=O)c3ccc[nH]3)C(C)CC4C)nc2c1C(=O)O (centres unmarked) [A23187]
[1]
  action on PTPases which specifically dephosphorylate the PDGF receptor: activator
[1]; swiss 3t3 cells, 5 min, 1 µM
  Relative PDGF receptor-directed PTPase activity (% of control): 161 % of control

## COc1cc2ncc(-c3ccccc3)nc2cc1OC [AG1296]
[2]
  influence on PDGF receptor-directed PTPase activity (dephosphorylation): does not influence the activity of the PTPase(s); also recorded: does not inhibit; also recorded: does not influence this dephosphorylation
PDGF receptor
  phosphotyrosine content of the PDGF receptor over time: continuously decreases
PDGF receptor PTK
  inhibition of PDGF receptor PTK activity / PDGF-induced receptor autophosphorylation: completely inhibits its activity; also recorded: completely suppressed

## COC(=O)C1(O)CC2OC1(C)n1c3ccccc3c3c4c(c5c6ccccc6n2c5c31)C(=O)NC4 (centres unmarked) [K252a]
NGF receptor
  phosphotyrosine content of the NGF receptor over time: very rapid dephosphorylation; also recorded: decreases significantly
NGF receptor PTK (Trk)
  inhibition of Trk receptor PTK activity / NGF-induced receptor autophosphorylation: completely inhibits the activity; also recorded: completely suppressed
NGF receptor PTK
  specificity of inhibition of NGF receptor PTK and PTK of other neurotrophin receptors: specific inhibitor of the NGF receptor PTK
